In PMC6058667 (Drug Delivery, 2018):

Experiments:
HepG-2 cells = assay: MTT cytotoxicity assay; format: cell-based; settings: HepG-2 hepatoma cell line, 48 h
Procedure: The in vitro cytotoxicity of CuB-MMs-CPs was assessed using the MTT assay. HepG-2 cells were seeded onto 96-well plates in 200 μL. DMEM was applied to obtain a concentration of 5000 cells per well and cultured at 37 °C, 5% CO2 for 24 h to allow attachment of cells. […] The percentage of cell viability was calculated on the basis of the optical density values at 490 nm of the sample wells, which contained cells treated with the culture medium.

HepG-2 xenografts = assay: Antitumor study in nude mice bearing HepG-2 xenografts; format: in vivo; settings: oral, equivalent CuB dose 2 mg/kg, versus saline
Procedure: For in vivo study, we used a nude mouse as a model for HepG-2 […]. […] All treatments were orally administered on days 1, 3, 5, 7, 9, 11, 13, 15, 17, 19, and 21. The volume of the tumor was measured daily. On day 22, mice were killed and tumors were weighed.

For Cucurbitacin B [CuB], the IC50 (HepG-2 cells) was 104 ± 50.3 nM and the Tumor growth (HepG-2 xenografts) was “slightly slower growth than animals administered with saline”.
